Experimental data as given in patent US11452686B2, “Cosmetic active substance obtained through bioconversion by Lactobacillus arizonensis of its original substrate, method for obtaining same composition comprising same, and uses” (SOCIETE INDUSTRIELLE LIMOUSINE D'APPLICATION BIOLOGIQUE, priority 2019, dated 2022).

What was measured:
Assay type in all cases: cell-based
filaggrin = experiment: Filaggrin synthesis by immunostaining on normal human keratinocytes subjected to a dry environment
Protocol: Thus, the use of an active substance according to the invention makes it possible to restore the epidermal differentiation process in order to obtain a cohesive structure. The second study on the keratinocytes makes it possible to compare the effect of the products of the various examples 1 to 5. To do this, their capacity to restore the synthesis of filaggrin by human keratinocytes subjected to a dry environment is compared. This study was carried out by immunocytology on normal human keratinocytes subjected to a dry environment. The procedure is as follows:
Normal human keratinocytes are seeded and incubated at 37° C. in an atmosphere containing 5% CO2 for several days.
Then, the keratinocytes are either incubated at 37° C. under 5% CO2 in an environment of 40% relative humidity in order to mimic a dry environment, or they are kept in an environment that is saturated with humidity (82% relative humidity) in the presence or absence of the products of examples 1 to 5 or in the presence of a sodium lactate solution at 45 g/L (pH 5.4).
After 24 h, immunostaining is performed using an anti-filaggrin primary antibody and a coupled secondary antibody, Alexa Flor® 488.
The nuclei are stained with a DAPI solution.
Viewing is performed using an IX 70 microscope (Olympus) coupled to an image analysis system (NIS-Elements software, Nikon).
The synthesized filaggrin is proportional to the intensity of green fluorescence present on the keratinocytes. A quantitative analysis of the images was performed using Matlab® software. The results are expressed in arbitrary units (AU) in Table 6 (Effect of the various examples on their ability to restore the synthesis of filaggrin in human keratinocytes subjected to water stress).

Collagen IV = Collagen IV mRNA expression by quantitative PCR on normal human fibroblasts; settings: 10 ng/mL (positive control)
Protocol: (§1) This study was carried out by PCR on normal human fibroblasts.
(§2) I. Culturing and Treatment of Fibroblasts: • Normal human fibroblasts are inoculated into a culture medium and then incubated at 37° C. in an atmosphere containing 5% CO2. • Then, the fibroblasts are cultured in the presence or absence of the active substance of example 1 at 0.5% and 1% (V/V).
(§3) TGF-β at 10 ng/mL is used as a positive control. Finally, the fibroblasts are recovered and the total RNAs extracted.
(§4) The RNAs were reverse-transcribed, and the complementary DNAs obtained were analyzed by the quantitative PCR technique. The mRNAs of the RPS18 protein, internal reference control, were analyzed in parallel with the mRNAs of Coll I, Coll III, Coll IV, Coll VII and HAS-2.
(§5) The quantification of the incorporation of fluorescence (SYBR Green) is measured continuously using a thermal cycler. The RQ (relative quantification) analysis is performed using software.

Collagen VII = Collagen VII mRNA expression by quantitative PCR on normal human fibroblasts; settings: 10 ng/mL (positive control)
Protocol: as §1, §2, §3, §4, §5

[1] = system: HAS-2 (hyaluronan synthase 2); experiment: HAS-2 mRNA expression by quantitative PCR on normal human fibroblasts; settings: 10 ng/mL (positive control)
Protocol: as §1, §2, §3, §4, §5

Collagen I = Collagen I mRNA expression by quantitative PCR on normal human fibroblasts; settings: 10 ng/mL (positive control)
Protocol: as §1, §2, §3, §4, §5

Collagen III = Collagen III mRNA expression by quantitative PCR on normal human fibroblasts; settings: 10 ng/mL (positive control)
Protocol: as §1, §2, §3, §4, §5

Molecule | Restoration of filaggrin synthesis (in words) (filaggrin; human keratinocytes subjected to water stress) | Synthesis of filaggrin (filaggrin; keratinocytes, water stress (40% relative humidity), 24 h, product at 0.5%) | Ability to restore filaggrin synthesis (filaggrin; keratinocytes, water stress, product at 0.5%) | Collagen IV Efficacy/control (Collagen IV) | Collagen IV Expression (Collagen IV) | Collagen VII Efficacy/control (Collagen VII) | Collagen VII Expression (Collagen VII) | HAS-2 Expression [1] | Collagen I Efficacy/control (Collagen I) | Collagen I Expression (Collagen I) | Collagen III Efficacy/control (Collagen III) | Collagen III Expression (Collagen III)
CC(O)C(=O)[O-].[Na+] (stereo not drawn) [Sodium lactate] | does not restore filaggrin synthesis | 909 AU | 7% | – | – | – | – | – | – | – | – | –
TGF-β | – | – | – | +218% | 318% | +234% | 334% | 78% | +126% | 226% | +39% | 139%
